Data reported in patent US20240317735A1, “HYDROISOQUINOLINE OR HYDRONAPHTHYRIDINE COMPOUNDS FOR THE TREATMENT OF AUTOIMMUNE DISEASE” (Hoffmann-La Roche Inc., priority 2020, published 2024).

Experiments:
[1] = Human microsome stability assay; assay type: in vitro ADME; conditions: 1 μM test compound, 0.5 mg/mL liver microsomal protein, 37° C., pH 7.4
How it was run: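 1 μM compound with 0.5 mg/mL human liver microsomes in 100 mM potassium phosphate pH 7.4, 37° C, started with NADPH-regenerating system after 10 min preincubation. Sampled at 0, 3, 6, 9, 15, 30 min, quenched in acetonitrile; parent remaining by LC-MS/MS, with no-NADPH controls.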

[2] = molecular target: T1, human TLR8 (Homo sapiens, UniProt Q9NR97); experiment: HEK293-Blue-hTLR-8 cells assay (SEAP reporter, R848 stimulation); assay type: cell-based; conditions: HEK293-Blue-hTLR8 cells, R848, 20 hrs; read-out: HEK/hTLR8 IC50
T1 construct: host or cells: HEK293 (HEK-Blue hTLR8)
T1 sequence (Q9NR97 27-1041): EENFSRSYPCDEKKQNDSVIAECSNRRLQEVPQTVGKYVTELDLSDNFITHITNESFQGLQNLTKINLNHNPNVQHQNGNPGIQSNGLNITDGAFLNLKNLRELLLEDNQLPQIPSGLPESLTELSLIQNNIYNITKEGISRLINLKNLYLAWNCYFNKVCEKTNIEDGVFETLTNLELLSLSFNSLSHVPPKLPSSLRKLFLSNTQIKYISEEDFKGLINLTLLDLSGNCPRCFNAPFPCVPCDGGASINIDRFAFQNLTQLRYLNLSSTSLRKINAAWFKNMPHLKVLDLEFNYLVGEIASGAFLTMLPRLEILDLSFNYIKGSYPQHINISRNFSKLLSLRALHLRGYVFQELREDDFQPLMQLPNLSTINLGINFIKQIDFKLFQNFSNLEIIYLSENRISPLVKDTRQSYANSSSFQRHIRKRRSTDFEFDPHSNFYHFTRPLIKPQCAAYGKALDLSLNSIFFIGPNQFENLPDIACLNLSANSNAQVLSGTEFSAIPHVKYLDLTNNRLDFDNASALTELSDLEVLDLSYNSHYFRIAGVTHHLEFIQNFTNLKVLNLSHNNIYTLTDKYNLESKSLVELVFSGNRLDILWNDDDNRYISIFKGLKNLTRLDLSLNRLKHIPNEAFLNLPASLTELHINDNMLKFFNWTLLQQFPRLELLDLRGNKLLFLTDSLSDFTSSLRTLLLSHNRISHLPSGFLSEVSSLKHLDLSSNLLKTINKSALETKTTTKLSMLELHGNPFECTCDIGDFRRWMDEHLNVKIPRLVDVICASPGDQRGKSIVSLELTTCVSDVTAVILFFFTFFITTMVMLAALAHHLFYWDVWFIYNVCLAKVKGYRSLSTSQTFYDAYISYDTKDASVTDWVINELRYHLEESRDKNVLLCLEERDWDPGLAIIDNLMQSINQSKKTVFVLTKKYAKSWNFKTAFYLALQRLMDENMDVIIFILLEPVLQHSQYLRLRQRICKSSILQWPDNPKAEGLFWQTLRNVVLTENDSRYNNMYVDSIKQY
How it was run: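 HEK293-Blue hTLR8 cells with NF-κB/AP-1-driven SEAP reporter incubated 20 h at 37 °C with serially diluted compound (1% DMSO) and R848 stimulus (60 μM stock). Supernatant SEAP measured with QUANTI-Blue (2 h, 37 °C) by absorbance at 620–655 nm; antagonism read as reduced reporter signal.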

| Structure (SMILES) | Clearance of Human microsome [1] | IC50 [2] |
| --- | --- | --- |
| C[C@H]1CN(c2ccnc3c2cnn3C)Cc2ccc(N3CCN[C@@H](CO)C3)cc21 [Example 50, [(2R)-4-[(4R)-4-methyl-2-(1-methylpyrazolo[3,4-b]pyridin-4-yl)-3,4-dihydro-1H-isoquinolin-6-yl]piperazin-2-yl]methanol] | 6.2 mL/min/kg | 3 nM |
| C[C@H]1CN(c2ccnc3c2cnn3C)Cc2ccc(N3CCN[C@H](CO)C3)cc21 [Example 51, [(2S)-4-[(4R)-4-methyl-2-(1-methylpyrazolo[3,4-b]pyridin-4-yl)-3,4-dihydro-1H-isoquinolin-6-yl]piperazin-2-yl]methanol] | 7.7 mL/min/kg | 4 nM |
| C[C@H]1CN(c2ccnc3c2cnn3C)Cc2ccc(N3CC4(CCNC4)CC3=O)cc21 (stereo partly drawn) [Example 52, 2-[(4R)-4-methyl-2-(1-methylpyrazolo[3,4-b]pyridin-4-yl)-3,4-dihydro-1H-isoquinolin-6-yl]-2,7-diazaspiro[4.4]nonan-3-one] | 6.2 mL/min/kg | 3 nM |
| Cc1cc(N2Cc3ccc(N4CCC(C)(N)CC4)nc3[C@@H](C)C2)c2cnn(C)c2n1 [Example 59, 4-methyl-1-[(8S)-6-(1,6-dimethylpyrazolo[3,4-b]pyridin-4-yl)-8-methyl-7,8-dihydro-5H-1,6-naphthyridin-2-yl]piperidin-4-amine] | 9.4 mL/min/kg | 0.5 nM |
| C[C@H]1CN(c2ccnc3c2cnn3C)Cc2ccc(N3CCNCC3)nc21 [Example 62, (8S)-8-methyl-6-(1-methylpyrazolo[3,4-b]pyridin-4-yl)-2-piperazin-1-yl-7,8-dihydro-5H-1,6-naphthyridine] | 6.8 mL/min/kg | 2 nM |
| CO[C@@H]1CN(c2ccc3c(n2)[C@@H](C)CN(c2cc(C)nc4c2cnn4C)C3)C[C@H]1N [Example 63, (3R,4R)-4-methoxy-1-[(8S)-6-(1,6-dimethylpyrazolo[3,4-b]pyridin-4-yl)-8-methyl-7,8-dihydro-5H-1,6-naphthyridin-2-yl]pyrrolidin-3-amine] | 6.2 mL/min/kg | 16 nM |
| Cc1cc(N2Cc3ccc(OC4CCNCC4)nc3[C@@H](C)C2)c2cnn(C)c2n1 [Example 64, (8S)-6-(1,6-dimethylpyrazolo[3,4-b]pyridin-4-yl)-8-methyl-2-(4-piperidyloxy)-7,8-dihydro-5H-1,6-naphthyridine] | 7.0 mL/min/kg | 4 nM |
| Cc1cc(N2Cc3ccc(N4CCNCC4)nc3[C@@H](C)C2)c2cnn(C)c2n1 [Example 66, (8S)-6-(1,6-dimethylpyrazolo[3,4-b]pyridin-4-yl)-8-methyl-2-piperazin-1-yl-7,8-dihydro-5H-1,6-naphthyridine] | 9.8 mL/min/kg | 1 nM |
| Cc1cc(N2Cc3ccc(N4CCN(C)CC4)nc3[C@@H](C)C2)c2cnn(C)c2n1 [Example 67, (8S)-6-(1,6-dimethylpyrazolo[3,4-b]pyridin-4-yl)-8-methyl-2-(4-methylpiperazin-1-yl)-7,8-dihydro-5H-1,6-naphthyridine] | 10.5 mL/min/kg | 1 nM |
| Cc1cc(N2Cc3ccc(N4CC5(CNCCO5)C4)nc3[C@@H](C)C2)c2cnn(C)c2n1 [Example 68, 2-[(8S)-6-(1,6-dimethylpyrazolo[3,4-b]pyridin-4-yl)-8-methyl-7,8-dihydro-5H-1,6-naphthyridin-2-yl]-5-oxa-2,8-diazaspiro[3.5]nonane] | 9.8 mL/min/kg | 17 nM |
| Cc1cc(N2Cc3ccc(N4CCOC5(CNC5)C4)nc3[C@@H](C)C2)c2cnn(C)c2n1 [Example 70, 8-[(8S)-6-(1,6-dimethylpyrazolo[3,4-b]pyridin-4-yl)-8-methyl-7,8-dihydro-5H-1,6-naphthyridin-2-yl]-5-oxa-2,8-diazaspiro[3.5]nonane] | 8.1 mL/min/kg | 28 nM |
| Cc1cc(N2Cc3ccc(N4CCNCC4)nc3[C@H](C)C2)c2cnn(C)c2n1 [Example 72, (8R)-6-(1,6-dimethylpyrazolo[3,4-b]pyridin-4-yl)-8-methyl-2-piperazin-1-yl-7,8-dihydro-5H-1,6-naphthyridine] | 7.3 mL/min/kg | 2 nM |

Other lines, results leading:

| Clearance of Human microsome [1] | IC50 [2] | Structure (SMILES) |
| --- | --- | --- |
| 9.0 mL/min/kg | 0.4 nM | Cc1cc(N2Cc3ccc(N4CCC(N)CC4)nc3[C@@H](C)C2)c2cnn(C)c2n1 [Example 58, 1-[(8S)-6-(1,6-dimethylpyrazolo[3,4-b]pyridin-4-yl)-8-methyl-7,8-dihydro-5H-1,6-naphthyridin-2-yl]piperidin-4-amine] |
| 8.1 mL/min/kg | 9 nM | Cc1cc(N2Cc3ccc(N4C[C@@H](F)[C@@H](N)C4)nc3[C@@H](C)C2)c2cnn(C)c2n1 [Example 69, (3S,4R)-4-fluoro-1-[(8S)-6-(1,6-dimethylpyrazolo[3,4-b]pyridin-4-yl)-8-methyl-7,8-dihydro-5H-1,6-naphthyridin-2-yl]pyrrolidin-3-amine] |
| 6.3 mL/min/kg | 2 nM | CO[C@H]1CN(c2cc3c(cn2)CN(c2cc(C)nc4c2cnn4C)C[C@@H]3C)CC[C@@H]1N [Example 73, (3S,4S)-3-methoxy-1-[(5R)-7-(1,6-dimethylpyrazolo[3,4-b]pyridin-4-yl)-5-methyl-6,8-dihydro-5H-2,7-naphthyridin-3-yl]piperidin-4-amine] |
| 9.2 mL/min/kg | 2 nM | Cc1cc(N2Cc3cnc(N4CCNCC4)cc3[C@@H](C)C2)c2cnn(C)c2n1 [Example 74, (4R)-2-(1,6-dimethylpyrazolo[3,4-b]pyridin-4-yl)-4-methyl-6-piperazin-1-yl-3,4-dihydro-1H-2,7-naphthyridine] |
| 6.2 mL/min/kg | 16 nM | Cc1cc(N2Cc3cnc(O[C@@H]4C[C@H]5CNCCN5C4)cc3[C@@H](C)C2)c2cnn(C)c2n1 [Example 76, (4R)-2-(1,6-dimethylpyrazolo[3,4-b]pyridin-4-yl)-4-methyl-6-[[(7R,8aS)-1,2,3,4,6,7,8,8a-octahydropyrrolo[1,2-a]pyrazin-7-yl]oxy]-3,4-dihydro-1H-2,7-naphthyridine] |
| 6.2 mL/min/kg | 16 nM | Cc1cc(N2Cc3cnc(OCCN4CCNCC4)cc3[C@@H](C)C2)c2cnn(C)c2n1 [Example 77, (4R)-2-(1,6-dimethylpyrazolo[3,4-b]pyridin-4-yl)-4-methyl-6-(2-piperazin-1-ylethoxy)-3,4-dihydro-1H-2,7-naphthyridine] |
| 6.9 mL/min/kg | 52 nM | CO[C@@H]1CN(c2cc3c(cn2)CN(c2cc(C)nc4c2cnn4C)C[C@@H]3C)C[C@H]1N [Example 78, (3R,4R)-4-methoxy-1-[(5R)-7-(1,6-dimethylpyrazolo[3,4-b]pyridin-4-yl)-5-methyl-6,8-dihydro-5H-2,7-naphthyridin-3-yl]pyrrolidin-3-amine] |
| 8.0 mL/min/kg | 23 nM | Cc1cc(N2Cc3cnc(N4CC5(CNCCO5)C4)cc3[C@@H](C)C2)c2cnn(C)c2n1 [Example 79, 2-[(5R)-7-(1,6-dimethylpyrazolo[3,4-b]pyridin-4-yl)-5-methyl-6,8-dihydro-5H-2,7-naphthyridin-3-yl]-5-oxa-2,8-diazaspiro[3.5]nonane] |
| 6.2 mL/min/kg | 34 nM | Cc1cc(N2Cc3cnc(N4CC[C@@H](N)[C@H](F)C4)cc3[C@@H](C)C2)c2cnn(C)c2n1 [Example 80, (3R,4R)-3-fluoro-1-[(5R)-7-(1,6-dimethylpyrazolo[3,4-b]pyridin-4-yl)-5-methyl-6,8-dihydro-5H-2,7-naphthyridin-3-yl]piperidin-4-amine] |
